These results are taken from ChEMBL document CHEMBL4033720, “Discovery of novel cyclic peptide inhibitors of dengue virus NS2B-NS3 protease with antiviral activity” (Bioorg Med Chem Lett, 2017).

Each structure is given as a SMILES string.

A short description of series [1]: Stability assessed as dengue virus 2 NS2B-NS3 protease-mediated compound degradation at 200 uM in presence of […] incubated for 22.5 hrs by LC-MS method. It counts as ADME. The following applies: dengue virus type 2, 22.5 h.
The nature of series [2]: Inhibition of dengue virus 2 NS2B-NS3 protease pre-incubated for 10 mins before Boc-Gly-Arg-Arg-peptidyl-4-methylcoumaryl-7-amide substrate addition and measured after 2 hrs by fluorescence based assay. More on the design: species or system dengue virus type 2.
For a further series, the system named is dengue virus type 2. Briefly: Antiviral activity against dengue virus 2 infected in BHK21 cells assessed as inhibition of virus-induced cytopathic effect after 4 days by resazurin dye based method. The conditions noted are these: Dengue virus, BHK-21, 96 h; read-out: EC50. It counts as functional, cell-based. On the technique in general: Protection from cytopathic effect is a common read-out in antiviral testing.

The nature of series [3]: Toxicity in BHK21 cells assessed a reduction in cell viability after 4 days by resazurin dye based method. More on the design: species or system Mesocricetus auratus, BHK-21. The conditions noted are these: hamster.
Series [4] in a line: Stability assessed as dengue virus 2 NS2B-NS3 protease-mediated compound degradation at 200 uM in presence of 100 nM enzyme incubated for 24 hrs by LC-MS method. It counts as ADME. The conditions noted are these: dengue virus type 2, 24 h.
Series [5] can be described thus: Stability assessed as dengue virus 2 NS2B-NS3 protease-mediated compound degradation at 200 uM in presence of […] incubated for 0 to 22.5 hrs by LC-MS method. It counts as ADME. The conditions noted are these: dengue virus type 2, 200 µM.
A short description of series [6]: Stability assessed as dengue virus 2 NS2B-NS3 protease-mediated compound degradation by measuring linear peptide with P1 C-terminus and P' N-terminus at 200 uM in presence of […] incubated for 0 to 22.5 hrs by LC-MS method. It counts as ADME. The conditions noted are these: dengue virus type 2, 200 µM.

One may read the IC50 as the concentration at which inhibition is half-maximal. Higher therefore signals weaker potency. One may read the EC50 as the concentration needed to bring the measured effect to its halfway point. The CC50 is the concentration at which the toxic effect on the cells reaches its halfway point. Read a high CC50 as better tolerance by the cells.

As for `C[C@@H]1NC[C@H](CCCCN)NC(=O)[C@H](CCCNC(=N)N)NC(=O)[C@H](CCCNC(=N)N)NC(=O)[C@@H](CCCNC(=N)N)NC(=O)[C@@H](Cc2ccccc2)NC(=O)[C@H](Cc2cccc3ccccc23)NC(=O)[C@H](CCc2ccccc2)NC1=O`, in series [1], the Stability result is reported as “Stable”. Besides, the IC50 in series [2] is 2.1 µM. The EC50 with dengue virus type 2 amounted to 11.4 µM. Besides, the CC50 at 96 h in series [3] amounted to 129 µM.
Turning to `C[C@@H]1NC(=O)[C@H](CCCCN)NC(=O)[C@H](CCCNC(=N)N)NC(=O)[C@H](CCCNC(=N)N)NC(=O)[C@@H](CCCNC(=N)N)NC(=O)[C@@H](Cc2ccccc2)NC(=O)[C@H](Cc2cccc3ccccc23)NC(=O)[C@H](CCc2ccccc2)NC1=O`, the Stability entry is given as “Stable” in series [4] and “Unstable” in series [5]. This compound returned a half-maximal inhibitory concentration (IC50) in series [2] of 1.7 µM. The EC50 in the series on dengue virus type 2 was determined as 11.8 µM. The CC50 at 96 h in series [3] came to 134 µM.
In series [2], `N=C(N)NCCC[C@@H]1NC(=O)[C@H](CCCNC(=N)N)NC(=O)[C@@H](CCCNC(=N)N)NC(=O)[C@@H](Cc2ccccc2)NC(=O)[C@H](Cc2cccc3ccccc23)NC(=O)[C@H](CCc2ccccc2)NC(=O)[C@H](CO)NC(=O)[C@H](CCCCN)NC1=O` yielded an IC50 of 1.6 µM. Further, the EC50 in the series on dengue virus type 2 was found to be 23.2 µM. In addition, the midpoint of cytotoxicity in series [3], the CC50 at 96 h, lay at 233 µM. For the same compound, the Drug metabolism entry in series [6] is on record as “Metabolite_Detected”. In addition, in series [5], the Stability entry is recorded as “Unstable”.
